Source: the kinase profiling compilation of Christmann-Franck et al. (2016)

What was measured:
Experiment in all cases: radiometric filter-binding kinase assay
[1] = molecular target: MARK3 (human) (UniProt P27448)
[2] = molecular target: AURKB (human) (UniProt Q96GD4)
[3] = molecular target: DYRK3 (human) (UniProt O43781)
[4] = molecular target: CAMKK2 (human) (UniProt Q96RR4)
[5] = molecular target: CSNK2A1 (human) (UniProt P68400)
[6] = molecular target: STK3 (human) (UniProt Q13188)
[7] = molecular target: CHEK1 (human) (UniProt O14757)
[8] = test system: LCK (mouse); conditions: accession and sequence are those of the human protein
[9] = molecular target: DYRK1A (human) (UniProt Q13627)
[10] = molecular target: MKNK1 (human) (UniProt Q9BUB5)
[11] = molecular target: PHKG1 (human) (UniProt Q16816)
[12] = test system: SGK1 (human), O00141 [S422D]
[13] = molecular target: MAPK11 (human) (UniProt Q15759)
[14] = molecular target: PIM3 (human) (UniProt Q86V86)
[15] = molecular target: MAPK10 (human) (UniProt P53779)
[16] = molecular target: SRPK1 (human) (UniProt Q96SB4)
[17] = molecular target: MAPK8 (human) (UniProt P45983)
[18] = test system: ROCK2 (rat); conditions: accession and sequence are those of the human protein
[19] = molecular target: HIPK2 (human) (UniProt Q9H2X6)
[20] = molecular target: MAPK13 (human) (UniProt O15264)
[21] = molecular target: BRSK2 (human) (UniProt Q8IWQ3)
[22] = molecular target: CaMK1 (human) (UniProt Q14012)
[23] = molecular target: MAPKAPK5 (human) (UniProt Q8IW41)

PHKG1 (human), sequence (Q16816 whole entry, looked up): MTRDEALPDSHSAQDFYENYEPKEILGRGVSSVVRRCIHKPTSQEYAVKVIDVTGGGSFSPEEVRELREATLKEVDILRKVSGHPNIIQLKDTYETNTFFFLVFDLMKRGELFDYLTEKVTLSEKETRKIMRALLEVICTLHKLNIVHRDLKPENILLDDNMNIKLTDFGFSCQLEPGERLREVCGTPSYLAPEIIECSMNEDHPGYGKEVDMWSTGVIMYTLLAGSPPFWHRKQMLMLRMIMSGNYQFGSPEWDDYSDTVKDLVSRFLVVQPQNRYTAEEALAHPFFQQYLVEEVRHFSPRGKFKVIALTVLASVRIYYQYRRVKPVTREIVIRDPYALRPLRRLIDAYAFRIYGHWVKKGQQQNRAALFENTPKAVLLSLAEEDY
BRSK2 (human), sequence (Q8IWQ3 whole entry, looked up): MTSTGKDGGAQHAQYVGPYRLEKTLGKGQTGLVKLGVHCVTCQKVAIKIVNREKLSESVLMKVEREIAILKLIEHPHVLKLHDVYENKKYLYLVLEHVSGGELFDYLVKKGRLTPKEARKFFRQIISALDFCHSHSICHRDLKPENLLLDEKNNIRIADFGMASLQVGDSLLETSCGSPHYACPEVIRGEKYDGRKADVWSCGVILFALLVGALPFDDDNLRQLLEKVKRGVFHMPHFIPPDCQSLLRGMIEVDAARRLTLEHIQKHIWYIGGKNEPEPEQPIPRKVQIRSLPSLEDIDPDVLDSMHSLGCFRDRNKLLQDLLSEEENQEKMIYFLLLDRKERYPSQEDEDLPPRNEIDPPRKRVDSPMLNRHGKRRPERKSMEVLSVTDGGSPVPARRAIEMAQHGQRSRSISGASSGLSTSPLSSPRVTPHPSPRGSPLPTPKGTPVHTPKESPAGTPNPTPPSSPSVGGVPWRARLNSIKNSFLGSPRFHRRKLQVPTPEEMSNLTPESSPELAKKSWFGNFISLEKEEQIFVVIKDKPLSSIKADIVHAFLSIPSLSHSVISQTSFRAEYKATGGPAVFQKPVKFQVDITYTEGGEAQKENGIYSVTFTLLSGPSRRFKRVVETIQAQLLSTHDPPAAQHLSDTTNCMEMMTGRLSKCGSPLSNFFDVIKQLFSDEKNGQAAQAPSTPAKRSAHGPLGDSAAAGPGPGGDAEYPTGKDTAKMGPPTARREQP
CHEK1 (human), sequence (O14757 whole entry, looked up): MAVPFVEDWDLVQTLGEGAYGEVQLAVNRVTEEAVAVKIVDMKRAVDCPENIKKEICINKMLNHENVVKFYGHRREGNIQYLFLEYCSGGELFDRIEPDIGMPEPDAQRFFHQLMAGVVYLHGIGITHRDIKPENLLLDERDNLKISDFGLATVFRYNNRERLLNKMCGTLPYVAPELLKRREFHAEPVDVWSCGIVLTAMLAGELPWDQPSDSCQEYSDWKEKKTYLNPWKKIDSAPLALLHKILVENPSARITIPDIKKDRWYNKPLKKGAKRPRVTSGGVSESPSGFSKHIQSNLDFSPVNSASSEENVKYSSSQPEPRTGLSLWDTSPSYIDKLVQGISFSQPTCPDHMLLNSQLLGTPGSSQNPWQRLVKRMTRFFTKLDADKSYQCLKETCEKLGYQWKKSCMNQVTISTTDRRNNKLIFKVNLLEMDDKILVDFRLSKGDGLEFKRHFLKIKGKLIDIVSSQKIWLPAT
CSNK2A1 (human), sequence (P68400 whole entry, looked up): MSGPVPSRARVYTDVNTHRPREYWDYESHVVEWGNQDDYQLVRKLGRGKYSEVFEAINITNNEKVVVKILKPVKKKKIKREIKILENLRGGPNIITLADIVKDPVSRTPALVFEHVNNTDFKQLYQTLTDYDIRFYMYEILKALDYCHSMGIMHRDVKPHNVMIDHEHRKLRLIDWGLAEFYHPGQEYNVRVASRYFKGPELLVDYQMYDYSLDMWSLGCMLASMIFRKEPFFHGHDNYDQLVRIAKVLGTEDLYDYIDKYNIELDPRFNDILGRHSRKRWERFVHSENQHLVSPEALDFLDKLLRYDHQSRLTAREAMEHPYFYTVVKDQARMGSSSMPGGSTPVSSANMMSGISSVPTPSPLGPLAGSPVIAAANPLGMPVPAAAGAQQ
CaMK1 (human), sequence (Q14012 whole entry, looked up): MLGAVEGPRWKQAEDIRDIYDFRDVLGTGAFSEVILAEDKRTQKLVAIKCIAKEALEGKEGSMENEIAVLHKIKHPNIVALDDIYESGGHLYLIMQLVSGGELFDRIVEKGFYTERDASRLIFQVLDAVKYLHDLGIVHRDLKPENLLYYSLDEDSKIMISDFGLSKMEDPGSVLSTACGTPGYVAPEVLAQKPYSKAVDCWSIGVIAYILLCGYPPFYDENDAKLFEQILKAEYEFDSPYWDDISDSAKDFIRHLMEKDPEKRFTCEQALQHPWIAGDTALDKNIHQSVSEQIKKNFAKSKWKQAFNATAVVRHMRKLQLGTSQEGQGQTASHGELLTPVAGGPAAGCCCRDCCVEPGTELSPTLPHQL
MAPK8 (human), sequence (P45983 whole entry, looked up): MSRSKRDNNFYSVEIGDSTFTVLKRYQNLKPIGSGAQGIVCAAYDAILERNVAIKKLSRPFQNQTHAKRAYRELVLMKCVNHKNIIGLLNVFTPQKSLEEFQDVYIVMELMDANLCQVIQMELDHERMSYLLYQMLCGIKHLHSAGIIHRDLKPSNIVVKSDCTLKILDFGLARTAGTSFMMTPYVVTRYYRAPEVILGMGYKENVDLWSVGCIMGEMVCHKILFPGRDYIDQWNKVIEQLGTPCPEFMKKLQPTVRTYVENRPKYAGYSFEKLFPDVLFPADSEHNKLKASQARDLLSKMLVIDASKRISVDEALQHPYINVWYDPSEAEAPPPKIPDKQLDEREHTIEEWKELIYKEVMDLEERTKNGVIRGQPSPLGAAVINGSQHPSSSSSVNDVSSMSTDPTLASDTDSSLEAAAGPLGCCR
CAMKK2 (human), sequence (Q96RR4 whole entry, looked up): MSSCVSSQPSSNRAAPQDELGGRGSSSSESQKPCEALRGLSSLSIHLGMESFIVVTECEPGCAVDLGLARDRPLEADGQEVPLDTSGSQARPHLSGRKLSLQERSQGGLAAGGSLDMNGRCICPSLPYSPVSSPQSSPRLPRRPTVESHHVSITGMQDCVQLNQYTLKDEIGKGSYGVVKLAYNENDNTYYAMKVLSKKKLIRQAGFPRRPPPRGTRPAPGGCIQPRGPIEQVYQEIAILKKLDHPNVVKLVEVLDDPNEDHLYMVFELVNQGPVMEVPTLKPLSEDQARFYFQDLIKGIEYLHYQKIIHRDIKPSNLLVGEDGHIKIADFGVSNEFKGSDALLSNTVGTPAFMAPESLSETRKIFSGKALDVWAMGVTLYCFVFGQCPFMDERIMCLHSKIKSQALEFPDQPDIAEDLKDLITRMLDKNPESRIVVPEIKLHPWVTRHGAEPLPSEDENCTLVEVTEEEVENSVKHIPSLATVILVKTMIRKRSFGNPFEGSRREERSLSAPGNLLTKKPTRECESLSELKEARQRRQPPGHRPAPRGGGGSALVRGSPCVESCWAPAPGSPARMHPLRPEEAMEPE
MKNK1 (human), sequence (Q9BUB5 whole entry, looked up): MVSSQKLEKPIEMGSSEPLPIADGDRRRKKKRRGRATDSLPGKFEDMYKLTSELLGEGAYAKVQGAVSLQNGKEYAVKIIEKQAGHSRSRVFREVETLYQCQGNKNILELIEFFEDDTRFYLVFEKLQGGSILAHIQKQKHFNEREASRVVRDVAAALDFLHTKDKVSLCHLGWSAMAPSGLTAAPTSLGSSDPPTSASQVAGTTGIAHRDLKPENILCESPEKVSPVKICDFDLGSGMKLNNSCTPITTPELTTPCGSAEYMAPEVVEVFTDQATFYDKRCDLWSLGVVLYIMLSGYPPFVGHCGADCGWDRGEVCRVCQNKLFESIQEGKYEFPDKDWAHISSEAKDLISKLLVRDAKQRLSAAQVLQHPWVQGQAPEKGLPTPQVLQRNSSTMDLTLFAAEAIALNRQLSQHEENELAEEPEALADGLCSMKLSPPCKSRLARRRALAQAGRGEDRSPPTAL
MARK3 (human), sequence (P27448 whole entry, looked up): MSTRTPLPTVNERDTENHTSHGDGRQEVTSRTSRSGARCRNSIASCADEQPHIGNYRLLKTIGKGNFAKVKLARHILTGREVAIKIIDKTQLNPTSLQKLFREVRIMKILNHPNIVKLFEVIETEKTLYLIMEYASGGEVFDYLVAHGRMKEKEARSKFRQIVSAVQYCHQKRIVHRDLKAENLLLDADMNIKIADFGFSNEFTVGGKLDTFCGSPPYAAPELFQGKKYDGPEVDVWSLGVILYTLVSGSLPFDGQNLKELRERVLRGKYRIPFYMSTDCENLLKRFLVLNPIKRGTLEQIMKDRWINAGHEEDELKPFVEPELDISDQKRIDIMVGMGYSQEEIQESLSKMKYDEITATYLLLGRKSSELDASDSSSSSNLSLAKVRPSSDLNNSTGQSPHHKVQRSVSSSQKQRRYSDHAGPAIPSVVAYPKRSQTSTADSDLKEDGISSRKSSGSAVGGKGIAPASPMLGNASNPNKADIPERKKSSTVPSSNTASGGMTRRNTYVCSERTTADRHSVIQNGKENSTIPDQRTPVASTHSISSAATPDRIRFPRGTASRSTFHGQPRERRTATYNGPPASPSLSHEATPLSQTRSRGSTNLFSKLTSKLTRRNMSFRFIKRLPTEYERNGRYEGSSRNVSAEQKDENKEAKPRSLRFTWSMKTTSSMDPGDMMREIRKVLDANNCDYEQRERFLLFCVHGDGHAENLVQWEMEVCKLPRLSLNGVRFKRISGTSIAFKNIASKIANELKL
AURKB (human), sequence (Q96GD4 whole entry, looked up): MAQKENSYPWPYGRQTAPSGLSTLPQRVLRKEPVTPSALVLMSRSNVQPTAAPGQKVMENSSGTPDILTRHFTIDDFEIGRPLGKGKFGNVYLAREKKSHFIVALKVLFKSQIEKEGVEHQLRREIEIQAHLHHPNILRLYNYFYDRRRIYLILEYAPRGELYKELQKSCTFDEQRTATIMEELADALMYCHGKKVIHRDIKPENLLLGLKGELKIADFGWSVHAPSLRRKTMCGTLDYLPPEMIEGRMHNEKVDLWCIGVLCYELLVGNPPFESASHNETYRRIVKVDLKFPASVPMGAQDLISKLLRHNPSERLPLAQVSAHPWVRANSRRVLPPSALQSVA

COc1ccc2c(c1)c1c3c(c4c5ccccc5n(C)c4c1n2CC(O)CN(C)C)C(=O)NC3=O (centres undefined)
residual activity ([1]; compound 0.1 µM): 93%
residual activity ([1]; compound 1.0 µM): 68%
residual activity ([1]; compound 10.0 µM): 33%
residual activity ([2]; compound 0.1 µM): 17%
residual activity ([2]; compound 1.0 µM): 14%
residual activity ([2]; compound 10.0 µM): 12%
residual activity ([3]; compound 0.1 µM): 92%
residual activity ([3]; compound 1.0 µM): 57%
residual activity ([3]; compound 10.0 µM): 24%
residual activity ([4]; compound 0.1 µM): 113%
residual activity ([4]; compound 1.0 µM): 68%
residual activity ([4]; compound 10.0 µM): 37%
residual activity ([5]; compound 0.1 µM): 105%
residual activity ([5]; compound 1.0 µM): 83%
residual activity ([5]; compound 10.0 µM): 71%
residual activity ([6]; compound 0.1 µM): 20%
residual activity ([6]; compound 1.0 µM): 3%
residual activity ([6]; compound 10.0 µM): 2%
residual activity ([7]; compound 0.1 µM): 56%
residual activity ([7]; compound 1.0 µM): 13%
residual activity ([7]; compound 10.0 µM): 4%
residual activity ([8]; compound 0.1 µM): 103%
residual activity ([8]; compound 1.0 µM): 75%
residual activity ([8]; compound 10.0 µM): 41%
residual activity ([9]; compound 0.1 µM): 96%
residual activity ([9]; compound 1.0 µM): 68%
residual activity ([9]; compound 10.0 µM): 41%
residual activity ([10]; compound 0.1 µM): 94%
residual activity ([10]; compound 1.0 µM): 80%
residual activity ([10]; compound 10.0 µM): 62%
residual activity ([11]; compound 0.1 µM): 77%
residual activity ([11]; compound 1.0 µM): 17%
residual activity ([11]; compound 10.0 µM): 11%
residual activity ([12]; compound 0.1 µM): 69%
residual activity ([12]; compound 1.0 µM): 25%
residual activity ([12]; compound 10.0 µM): 6%
residual activity ([13]; compound 0.1 µM): 119%
residual activity ([13]; compound 1.0 µM): 102%
residual activity ([13]; compound 10.0 µM): 95%
residual activity ([14]; compound 0.1 µM): 2%
residual activity ([14]; compound 1.0 µM): 1%
residual activity ([14]; compound 10.0 µM): 1%
residual activity ([15]; compound 0.1 µM): 90%
residual activity ([15]; compound 1.0 µM): 97%
residual activity ([15]; compound 10.0 µM): 87%
residual activity ([16]; compound 0.1 µM): 113%
residual activity ([16]; compound 1.0 µM): 89%
residual activity ([16]; compound 10.0 µM): 77%
residual activity ([17]; compound 0.1 µM): 103%
residual activity ([17]; compound 1.0 µM): 99%
residual activity ([17]; compound 10.0 µM): 60%
residual activity ([18]; compound 0.1 µM): 118%
residual activity ([18]; compound 1.0 µM): 115%
residual activity ([18]; compound 10.0 µM): 112%
residual activity ([19]; compound 0.1 µM): 97%
residual activity ([19]; compound 1.0 µM): 55%
residual activity ([19]; compound 10.0 µM): 24%
residual activity ([20]; compound 0.1 µM): 89%
residual activity ([20]; compound 1.0 µM): 65%
residual activity ([20]; compound 10.0 µM): 37%
residual activity ([21]; compound 0.1 µM): 72%
residual activity ([21]; compound 1.0 µM): 18%
residual activity ([21]; compound 10.0 µM): 6%
residual activity ([22]; compound 0.1 µM): 79%
residual activity ([22]; compound 1.0 µM): 55%
residual activity ([22]; compound 10.0 µM): 16%
residual activity ([23]; compound 0.1 µM): 104%
residual activity ([23]; compound 1.0 µM): 103%
residual activity ([23]; compound 10.0 µM): 108%
